Assay results: patent US20220132852A1, “PESTICIDALLY ACTIVE HETEROCYCLIC DERIVATIVES WITH SULFUR CONTAINING SUBSTITUENTS” (SYNGENTA CROP PROTECTION AG, priority 2019, published 2022)

Experiments:
Format in all cases: in vivo
[1] = system: Diabrotica balteata (Corn Root Worm); assay: Example B1: Activity against Diabrotica balteata (corn root worm), sprayed maize sprouts; conditions: 96 h, application rate 200 ppm, L2 larvae on sprayed maize sprouts, 4 days after infestation, read-out: effect in at least one of the two categories (mortality or growth inhibition)
Method: Example B1: Activity Against Diabrotica balteata (Corn Root Worm)
Maize sprouts placed onto an agar layer in 24-well microtiter plates were treated with aqueous test solutions prepared from 10′000 ppm DMSO stock solutions by spraying. After drying, the plates were infested with L2 larvae (6 to 10 per well). The samples were assessed for mortality and growth inhibition in comparison to untreated samples 4 days after infestation.

[2] = system: Euschistus heros (Neotropical Brown Stink Bug); assay: Example B2: Activity against Euschistus heros (neotropical brown stink bug), sprayed soybean leaves; conditions: 120 h, application rate 200 ppm, N2 nymphs on sprayed soybean leaves, 5 days after infestation, read-out: effect in at least one of the two categories (mortality or growth inhibition)
Method: Example B2: Activity Against Euschistus heros (Neotropical Brown Stink Bug)
Soybean leaves on agar in 24-well microtiter plates were sprayed with aqueous test solutions prepared from 10′000 ppm DMSO stock solutions. After drying the leaves were infested with N2 nymphs. The samples were assessed for mortality and growth inhibition in comparison to untreated samples 5 days after infestation.

[3] = system: Plutella xylostella (Diamond Back Moth); assay: Example B3: Activity against Plutella xylostella (diamond back moth), artificial diet; conditions: 192 h, application rate 200 ppm, eggs on artificial diet, 8 days after infestation, read-out: effect in at least one of the two categories (mortality or growth inhibition)
Method: Example B3: Activity Against Plutella xylostella (Diamond Back Moth)
24-well microtiter plates with artificial diet were treated with aqueous test solutions prepared from 10′000 ppm DMSO stock solutions by pipetting. After drying, Plutella eggs were pipetted through a plastic stencil onto a gel blotting paper and the plate was closed with it. The samples were assessed for mortality and growth inhibition in comparison to untreated samples 8 days after infestation. The following compounds gave an effect of at least 80% in at least one of the two categories (mortality or growth inhibition) at an application rate of 200 ppm: P2, P4, P5, P6, P8, P9, P10, P11, P12, P14, P15, P16, P17, P18, P19, P20, P21, P22, P23, P24, P25, P26, P27, P28, P29, P30, P31, P32, P33, P34, P35, P36, P38, P39, P40, P42, P45, P46, P47, P49, P50, P51, P52.

[4] = system: Spodoptera littoralis (Egyptian Cotton Leaf Worm); assay: Example B6: Activity against Spodoptera littoralis (Egyptian cotton leaf worm); conditions: foliar, 72 h, application rate 200 ppm, L1 larvae on sprayed cotton leaf discs, 3 days after infestation, read-out: control (mortality, anti-feeding effect or growth inhibition)
Method: Example B6: Activity Against Spodoptera littoralis (Egyptian Cotton Leaf Worm)
Cotton leaf discs were placed onto agar in 24-well microtiter plates and sprayed with aqueous test solutions prepared from 10′000 ppm DMSO stock solutions. After drying the leaf discs were infested with five L1 larvae. The samples were assessed for mortality, anti-feeding effect, and growth inhibition in comparison to untreated samples 3 days after infestation. Control of Spodoptera littoralis by a test sample is given when at least one of the categories mortality, anti-feedant effect, and growth inhibition is higher than the untreated sample.

CCS(=O)(=O)c1cc(NC)cnc1-c1cc2ccn(CC(F)(F)C(F)(F)F)c2cn1 [Compound P18, 5-ethylsulfonyl-N-methyl-6-[1-(2,2,3,3,3-pentafluoropropyl)pyrrolo[2,3-c]pyridin-5-yl]pyridin-3-amine]
≥ 80%: percent effect (mortality or growth inhibition) at 200 ppm [1] | percent effect (mortality or growth inhibition) at 200 ppm [2] | percent effect (mortality or growth inhibition) at 200 ppm [3] | percent control (mortality, anti-feedant effect or growth inhibition) at 200 ppm [4]

CCSc1cc(C2CC2)c[n+]([O-])c1-c1cc2ncn(CC(F)(F)C(F)(F)F)c2cn1 [PN4, 6-(5-cyclopropyl-3-ethylsulfanyl-1-oxido-pyridin-1-ium-2-yl)-3-(2,2,3,3,3-pentafluoropropyl)imidazo[4,5-c]pyridine]
≥ 80%: percent effect (mortality or growth inhibition) at 200 ppm [2]

CCS(=O)(=O)c1cc(-n2ccc(C(F)(F)F)n2)cnc1-c1cc2cnn(CC(F)(F)C(F)(F)F)c2cn1 [Compound P45, 5-[3-ethylsulfonyl-5-[3-(trifluoromethyl)pyrazol-1-yl]-2-pyridyl]-1-(2,2,3,3,3-pentafluoropropyl) pyrazolo[3,4-c]pyridine]
≥ 80%: percent effect (mortality or growth inhibition) at 200 ppm [1] | percent effect (mortality or growth inhibition) at 200 ppm [2] | percent effect (mortality or growth inhibition) at 200 ppm [3] | percent control (mortality, anti-feedant effect or growth inhibition) at 200 ppm [4]

CCS(=O)(=O)c1cc(C2CC2)cnc1-c1cc2ccn(CC(F)(F)C(F)(F)F)c2cn1 [Compound P51, 5-(5-cyclopropyl-3-ethylsulfonyl-2-pyridyl)-1-(2,2,3,3,3-pentafluoropropyl) pyrrolo[2,3-c]pyridine]
≥ 80%: percent effect (mortality or growth inhibition) at 200 ppm [1] | percent effect (mortality or growth inhibition) at 200 ppm [3] | percent control (mortality, anti-feedant effect or growth inhibition) at 200 ppm [4]

CCSc1cc(-n2ccc(Cl)n2)cnc1-c1cc2cnn(CC(F)(F)C(F)(F)F)c2cn1 [Compound P39, 5-[5-(3-chloropyrazol-1-yl)-3-ethylsulfanyl-2-pyridyl]-1-(2,2,3,3,3-pentafluoropropyl) pyrazolo[3,4-c]pyridine]
≥ 80%: percent effect (mortality or growth inhibition) at 200 ppm [1] | percent effect (mortality or growth inhibition) at 200 ppm [3] | percent control (mortality, anti-feedant effect or growth inhibition) at 200 ppm [4]

CCSc1cc(Oc2ccccn2)cnc1-c1cc2cnn(CC(F)(F)C(F)(F)F)c2cn1 [Compound P20, 5-[3-ethylsulfanyl-5-(2-pyridyloxy)-2-pyridyl]-1-(2,2,3,3,3-pentafluoropropyl) pyrazolo [3,4-c]pyridine]
≥ 80%: percent effect (mortality or growth inhibition) at 200 ppm [1] | percent effect (mortality or growth inhibition) at 200 ppm [2] | percent effect (mortality or growth inhibition) at 200 ppm [3] | percent control (mortality, anti-feedant effect or growth inhibition) at 200 ppm [4]

CCSc1cc(C2(C#N)CC2)cnc1-c1cc2ncn(CC(F)(F)C(F)(F)F)c2cn1 [Compound P38, 1-[5-ethylsulfanyl-6-[3-(2,2,3,3,3-pentafluoropropyl)imidazo[4,5-c]pyridin-6-yl]-3-pyridyl] cyclopropane-carbonitrile]
≥ 80%: percent effect (mortality or growth inhibition) at 200 ppm [1] | percent effect (mortality or growth inhibition) at 200 ppm [2] | percent effect (mortality or growth inhibition) at 200 ppm [3] | percent control (mortality, anti-feedant effect or growth inhibition) at 200 ppm [4]

CCSc1cc(C(F)(F)F)cnc1-c1cc2cnn(CC(F)(F)C(F)(F)F)c2cn1 [Compound P30, 5-[3-ethylsulfanyl-5-(trifluoromethyl)-2-pyridyl]-1-(2,2,3,3,3-pentafluoropropyl) pyrazolo[3,4-c] pyridine]
≥ 80%: percent effect (mortality or growth inhibition) at 200 ppm [1] | percent effect (mortality or growth inhibition) at 200 ppm [2] | percent effect (mortality or growth inhibition) at 200 ppm [3] | percent control (mortality, anti-feedant effect or growth inhibition) at 200 ppm [4]

CCSc1cc(C2(C#N)CC2)c[n+]([O-])c1-c1cc2ncn(CC(F)(F)C(F)(F)F)c2cn1 [PN8, 1-[5-ethylsulfanyl-1-oxido-6-[3-(2,2,3,3,3-pentafluoropropyl)imidazo[4,5-c]pyridin-6-yl]pyridin-1-ium-3-yl]cyclopropane-carbonitrile]
≥ 80%: percent effect (mortality or growth inhibition) at 200 ppm [2]

CCSc1cc(-n2ccc(C(F)(F)F)n2)cnc1-c1cc2cnn(CC(F)(F)C(F)(F)F)c2cn1 [Compound P50, 5-[3-ethylsulfanyl-5-[3-(trifluoromethyl)pyrazol-1-yl]-2-pyridyl]-1-(2,2,3,3,3-pentafluoropropyl) pyrazolo[3,4-c]pyridine]
≥ 80%: percent effect (mortality or growth inhibition) at 200 ppm [1] | percent effect (mortality or growth inhibition) at 200 ppm [3] | percent control (mortality, anti-feedant effect or growth inhibition) at 200 ppm [4]

CCS(=O)(=O)c1ccc(Cl)nc1-c1cc2cnn(CC(F)(F)C(F)(F)F)c2cn1 [Compound P49, 5-(6-chloro-3-ethylsulfonyl-2-pyridyl)-1-(2,2,3,3,3-pentafluoropropyl) pyrazolo[3,4-c]pyridine]
≥ 80%: percent effect (mortality or growth inhibition) at 200 ppm [1] | percent effect (mortality or growth inhibition) at 200 ppm [2] | percent effect (mortality or growth inhibition) at 200 ppm [3] | percent control (mortality, anti-feedant effect or growth inhibition) at 200 ppm [4]

CCS(=O)(=O)c1ccc(Cl)nc1-c1cc2ccn(CC(F)(F)C(F)(F)F)c2cn1 [Compound P36, 5-(6-chloro-3-ethylsulfonyl-2-pyridyl)-1-(2,2,3,3,3-pentafluoropropyl) pyrrolo[2,3-c]pyridine]
≥ 80%: percent effect (mortality or growth inhibition) at 200 ppm [1] | percent effect (mortality or growth inhibition) at 200 ppm [3] | percent control (mortality, anti-feedant effect or growth inhibition) at 200 ppm [4]

CCSc1cc(C2(C#N)CC2)cnc1-c1cc2ccn(CC(F)(F)C(F)(F)F)c2cn1 [Compound P37, 1-[5-ethylsulfanyl-6-[1-(2,2,3,3,3-pentafluoropropyl)pyrrolo[2,3-c]pyridin-5-yl]-3-pyridyl] cyclopropane-carbonitrile]
≥ 80%: percent effect (mortality or growth inhibition) at 200 ppm [1] | percent control (mortality, anti-feedant effect or growth inhibition) at 200 ppm [4]

CCS(=O)(=O)c1cc(C(C)(C)C#N)cnc1-c1cc2ccn(CC(F)(F)C(F)(F)F)c2cn1 [Compound P19, 2-[5-ethylsulfonyl-6-[1-(2,2,3,3,3-pentafluoropropyl)pyrrolo[2,3-c]pyridin-5-yl]-3-pyridyl]-2-methyl-propanenitrile]
≥ 80%: percent effect (mortality or growth inhibition) at 200 ppm [1] | percent effect (mortality or growth inhibition) at 200 ppm [2] | percent effect (mortality or growth inhibition) at 200 ppm [3] | percent control (mortality, anti-feedant effect or growth inhibition) at 200 ppm [4]

CCSc1cc(C(C)(C)C#N)cnc1-c1cc2ccn(CC(F)(F)C(F)(F)F)c2cn1 [Compound P29, 2-[5-ethylsulfanyl-6-[1-(2,2,3,3,3-pentafluoropropyl)pyrrolo[2,3-c]pyridin-5-yl]-3-pyridyl]-2-methyl-propanenitrile]
≥ 80%: percent effect (mortality or growth inhibition) at 200 ppm [1] | percent effect (mortality or growth inhibition) at 200 ppm [3]

CCSc1cc(C2CC2)cnc1-c1cc2ncn(CC(F)(F)C(F)(F)F)c2cn1 [Compound P9, 6-(5-cyclopropyl-3-ethylsulfanyl-2-pyridyl)-3-(2,2,3,3,3-pentafluoropropyl) imidazo[4,5-c]pyridine]
≥ 80%: percent effect (mortality or growth inhibition) at 200 ppm [1] | percent effect (mortality or growth inhibition) at 200 ppm [3]

CCS(=O)(=O)c1ccc(-n2cncn2)nc1-c1cc2ccn(CC(F)(F)C(F)(F)F)c2cn1 [Compound P35, 5-[3-ethylsulfonyl-6-(1,2,4-triazol-1-yl)-2-pyridyl]-1-(2,2,3,3,3-pentafluoropropyl) pyrrolo[2,3-c]pyridine]
≥ 80%: percent effect (mortality or growth inhibition) at 200 ppm [1] | percent effect (mortality or growth inhibition) at 200 ppm [3] | percent control (mortality, anti-feedant effect or growth inhibition) at 200 ppm [4]

CCS(=O)(=O)c1cc(C2CC2)cnc1-c1cc2cnn(CC(F)(F)C(F)(F)F)c2cn1 [Compound P28, 5-(5-cyclopropyl-3-ethylsulfonyl-2-pyridyl)-1-(2,2,3,3,3-pentafluoropropyl) pyrazolo[3,4-c] pyridine]
≥ 80%: percent effect (mortality or growth inhibition) at 200 ppm [1] | percent effect (mortality or growth inhibition) at 200 ppm [2] | percent effect (mortality or growth inhibition) at 200 ppm [3] | percent control (mortality, anti-feedant effect or growth inhibition) at 200 ppm [4]
